Data: patent publication US20240315991A1, “USES OF HNF4 ALPHA AGONISTS” (Sanford Burnham Prebys Medical Discovery Institute, priority 2023, published 2024)

How the values were obtained:
IL-6 protein = test: ELISA of culture media of primary human hepatocytes, IL-6; type: cell-based; settings: HEP-fat media, NCT 5, 15, and 40 μM, FIG. 5D
Description: (§1) Primary human hepatocytes. Experiments with primary human hepatocytes were performed by CN-Bio (Cambridge, UK). Briefly, primary human hepatocytes (PHHs), human Kupffer cells (HKs) and human stellate cells (HSCs) were seeded onto CN-Bio's PhysioMimix LC12 MPS culture plates at 6×10^5 cells for PHHs and 6×10^4 cells for HKs and HSCs in 1.6 ml of CN-Bio's HEP-lean media with 5% FCS. Throughout the experiment the cells were maintained at a flow rate of 1 μl/s. After 24 hours (Day 1) of seeding, the media was changed to HEP-lean media and the cells were incubated until day 4 to allow the cells to form microtissues. At day 4 post seeding, media was changed to HEP-fat media and treated with DMSO or NCT (5, 15, and 40 μM). Media was replaced on days 6 and 8. Cells were harvested on day 10 for RNA extraction and culture media was collected for ELISA analysis.

hepatic cytochrome C = test: Western blotting of liver, cytochrome C; type: in vivo, mouse; settings: HFD+NCT vs HFD, FIGS. 3D-3F
Description: (§2) NCT oral administration. Four-week-old male C57BL/6J (JAX cat #000664) mice were purchased from Jackson laboratory and were maintained in a 12 h light/dark cycle throughout the experiment. Prior to the experiments, mice were acclimated for 2 weeks. Six-week-old mice with similar body weights were randomized to a normal diet (NC), a high fat diet (HFD) (Research Diets, cat #D12492 60 kcal % fat) or HFD containing 4000 ppm NCT (HFD+NCT) (Research Diets, 60 kcal % fat+4000 ppm NCT), which was calculated to provide approximately 400 mg/kg/d NCT. HFD chow containing NCT was made with gray dye to distinguish it from regular HFD chow that had green dye. Mice for each treatment group were placed in separate cages. Equal amounts of fresh chow were provided every week to all mice. Body weight gain and food intake were measured every week for 10 weeks. After 10 weeks of chow treatment, mice were sacrificed for analysis. All animal experiments were approved by the Institutional Animal Care and Use Committee (IACUC) of the Sanford Burnham Prebys Medical Discovery Institute in accordance with national regulations. Sample size was chosen based on the prior study of NCT delivered by IP injection.
Western blotting. Mouse liver extracts were prepared by incubation in RIPA buffer (Invitrogen) containing protease inhibitors (Calbiochem, SanDiego, CA). Protein was quantified by BCA assay (Thermo Scientific). […]

[1] = system: mice maintained on a 60% fat calorie diet; settings: intraperitoneal injection for 2 weeks; cited from earlier work
IL-6 mRNA = test: RT-PCR of mouse liver, IL-6; type: in vivo; settings: HFD+NCT vs HFD, FIG. 5A
Description: as §2, with “All animal experiments were approved by the Institutional Animal Care and Use Committee (IACUC) of the Sanford Burnham Prebys Medical Discovery Institute in accordance with national regulations. Sample size was chosen based on the prior study of NCT delivered by IP injection.” left out
(§3) RT-PCR. […] Quantitative real time PCR (RT-PCR) analysis was performed using SYBR® Select Master Mix (Applied Biosystems) and an ABI 7900HT thermal cycler (Applied Biosystems, Thermo Fisher Scientific). Ct values were normalized to 18s rRNA and are expressed as fold change over samples from mice fed NC or cultured human hepatocytes without NCT.

SDHA mRNA [2] = test: RT-PCR of mouse liver, SDHA; type: in vivo; settings: HFD+NCT vs HFD, FIGS. 3G and 3H
Description: as §2, with “All animal experiments were approved by the Institutional Animal Care and Use Committee (IACUC) of the Sanford Burnham Prebys Medical Discovery Institute in accordance with national regulations. Sample size was chosen based on the prior study of NCT delivered by IP injection.” left out
as §3

[3] = system: DNA encoding the mitochondrial genes 16s rRNA; test: Mitochondrial DNA analysis of liver, 16s rRNA; type: in vivo; settings: mouse liver, HFD+NCT vs HFD, FIG. 3L
Description: as §2
(§4) Quantification of mtDNA was performed. […]

nitric oxide (NO) = test: Nitric oxide assay in mouse liver; type: in vivo; settings: HFD+NCT vs HFD, FIG. 5G
Description: as §2, with “All animal experiments were approved by the Institutional Animal Care and Use Committee (IACUC) of the Sanford Burnham Prebys Medical Discovery Institute in accordance with national regulations. Sample size was chosen based on the prior study of NCT delivered by IP injection.” left out
T6PNE cells were maintained in RPMI (5.5 mM glucose, Corning) supplemented with 10% fetal bovine serum (FBS, Sigma-Aldrich) and 1% penicillin-streptomycin (pen-strep, Gibco) in 5% CO2 at 37° C. […] NO was measured with the QuantiChrom Nitric Oxide Assay kit (D2NO-100, BioAssay Systems). […] Samples and standard from kit were incubated with reagents for 20 min at 60° C. and measured OD 540 nm.

cytochrome C mRNA = test: RT-PCR of mouse liver, cytochrome C; type: in vivo; settings: HFD vs. HFD+NCT, FIG. 3G
Description: as §2, with “All animal experiments were approved by the Institutional Animal Care and Use Committee (IACUC) of the Sanford Burnham Prebys Medical Discovery Institute in accordance with national regulations. Sample size was chosen based on the prior study of NCT delivered by IP injection.” left out
as §3

SDHA mRNA [4] = test: RT-PCR of primary human hepatocytes, SDHA; type: cell-based; settings: HEP-fat media, NCT 5, 15, and 40 μM, FIGS. 3I and 3J
Description: as §1, §3

[5] = system: DNA encoding the mitochondrial genes ND1; test: Mitochondrial DNA analysis of liver, ND1; type: in vivo; settings: mouse liver, HFD+NCT vs HFD, FIG. 3K
Description: as §2, §4

[6] = cited from earlier work

O=C(/C=C/c1ccc(O)c(O)c1)NCCc1ccc(O)cc1 [NCT, N-trans caffeoyltyramine]
IL-6 protein level secreted by cultured human hepatocytes (IL-6 protein): decrease | hepatic cytochrome C protein level (hepatic cytochrome C): reverse the depression | body weight loss [1]: no body weight loss | fat stored in liver [1]: reduce | IL-6 level in livers of mice on HFD (IL-6 mRNA): decreased | IL-6 level in livers of mice on HFD (IL-6 mRNA; listed as Compound A): decrease | SDHA mRNA in mouse liver (SDHA mRNA [2]): increase | level of DNA encoding the mitochondrial genes 16s rRNA [3]: increase | level of NO in the livers of mice fed on HFD (nitric oxide (NO)): decrease | cytochrome C mRNA levels in mouse livers (cytochrome C mRNA): non-significant | SDHA mRNA in human hepatocytes (SDHA mRNA [4]): increase | level of DNA encoding the mitochondrial genes ND1 [5]: increase | oral bioavailability [6]: poor
